Legend:
Experiment in all cases: relative viability (nuclei count vs DMSO), 5 days (fraction); higher = more cells survive
Vismodegib + Dasatinib = compound: CS(=O)(=O)c1ccc(C(=O)Nc2ccc(Cl)c(-c3ccccn3)c2)c(Cl)c1 [Vismodegib] + Cc1nc(Nc2ncc(C(=O)Nc3c(C)cccc3Cl)s2)cc(N2CCN(CCO)CC2)n1 [Dasatinib] (partner 0.075 µM)
Procedure, shortened: (§1)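 Relative viability was taken as the ratio of nuclei in treated wells to nuclei in vehicle wells. Lung cancer cell lines in 1536-well plates received compounds by pin tool one day after seeding, either one drug alone or a fixed anchor-drug dose plus five library-drug doses (not always all listed) in √10 steps. Nuclei were counted on 4× images after 5 days of treatment, and values are medians of duplicate plates.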

VE-821 + Olaparib = compound: CS(=O)(=O)c1ccc(-c2cnc(N)c(C(=O)Nc3ccccc3)n2)cc1 [VE-821] + O=C(c1cc(Cc2n[nH]c(=O)c3ccccc23)ccc1F)N1CCN(C(=O)C2CC2)CC1 [Olaparib] (partner 8 µM)
Procedure, shortened: as §1

Vismodegib + AZD7762 = compound: CS(=O)(=O)c1ccc(C(=O)Nc2ccc(Cl)c(-c3ccccn3)c2)c(Cl)c1 [Vismodegib] + NC(=O)Nc1cc(-c2cccc(F)c2)sc1C(=O)N[C@H]1CCCNC1 [AZD7762] (partner 0.2 µM)
Procedure, shortened: as §1

Vismodegib + Pictilisib = compound: CS(=O)(=O)c1ccc(C(=O)Nc2ccc(Cl)c(-c3ccccn3)c2)c(Cl)c1 [Vismodegib] + CS(=O)(=O)N1CCN(Cc2cc3nc(-c4cccc5[nH]ncc45)nc(N4CCOCC4)c3s2)CC1 [Pictilisib] (partner 1 µM)
Procedure, shortened: as §1

Cell Line | relative viability (Vismodegib + Dasatinib; first compound 0.08 µM) | relative viability (Vismodegib + Dasatinib; first compound 0.253 µM) | relative viability (Vismodegib + Dasatinib; first compound 0.8 µM) | relative viability (Vismodegib + Dasatinib; first compound 2.53 µM) | relative viability (Vismodegib + Dasatinib; first compound 8 µM) | relative viability (VE-821 + Olaparib; first compound 0.08 µM) | relative viability (VE-821 + Olaparib; first compound 0.253 µM) | relative viability (VE-821 + Olaparib; first compound 0.8 µM) | relative viability (VE-821 + Olaparib; first compound 2.53 µM) | relative viability (VE-821 + Olaparib; first compound 8 µM) | relative viability (Vismodegib + AZD7762; first compound 0.08 µM) | relative viability (Vismodegib + AZD7762; first compound 0.253 µM) | relative viability (Vismodegib + AZD7762; first compound 0.8 µM) | relative viability (Vismodegib + AZD7762; first compound 2.53 µM) | relative viability (Vismodegib + AZD7762; first compound 8 µM) | relative viability (Vismodegib + Pictilisib; first compound 0.08 µM) | relative viability (Vismodegib + Pictilisib; first compound 0.253 µM) | relative viability (Vismodegib + Pictilisib; first compound 0.8 µM) | relative viability (Vismodegib + Pictilisib; first compound 2.53 µM) | relative viability (Vismodegib + Pictilisib; first compound 8 µM)
HCC-15 | 0.631 | 0.58 | 0.582 | 0.66 | 0.585 | 0.77 | 0.703 | 0.894 | 0.735 | 0.558 | 1.17 | 1.14 | 1.19 | 1.21 | 1.21 | 0.754 | 0.758 | 0.711 | 0.748 | 0.597
HCC-78 | 0.32 | 0.33 | 0.363 | 0.475 | 0.351 | 0.8 | 0.931 | 0.772 | 0.946 | 0.736 | 0.575 | 0.605 | 0.544 | 0.542 | 0.634 | 0.19 | 0.189 | 0.176 | 0.206 | 0.234
HCC-366 | 0.816 | 0.587 | 0.622 | 0.693 | 0.692 | 0.654 | 0.342 | 0.19 | 0.0816 | 0.0499 | 0.269 | 0.217 | 0.292 | 0.258 | 0.373 | 0.16 | 0.17 | 0.148 | 0.137 | 0.131
HCC-827 | 0.361 | 0.263 | 0.297 | 0.268 | 0.293 | 0.735 | 0.753 | 0.136 | 0.734 | 0.711 | 0.278 | 0.183 | 0.258 | 0.168 | 0.169 | 1.22 | 1.06 | 0.834 | 0.854 | 0.97
HOP-62 | 0.663 | 0.694 | 0.609 | 0.683 | 0.683 | 0.375 | 0.477 | 0.418 | 0.212 | 0.252 | 0.591 | 0.41 | 0.798 | 0.691 | 0.423 | 0.751 | 0.703 | 0.759 | 0.815 | 0.656
LC-2-ad | 0.677 | 0.568 | 0.467 | 0.482 | 0.557 | 0.714 | 0.709 | 0.725 | 0.592 | 0.519 | 0.823 | 0.822 | 0.84 | 0.864 | 0.751 | 0.49 | 0.503 | 0.513 | 0.643 | 0.421
LCLC-97TM1 | 0.855 | 0.755 | 0.617 | 0.856 | 0.834 | 0.483 | 0.373 | 0.418 | 0.359 | 0.166 | 0.292 | 0.262 | 0.327 | 0.297 | 0.286 |  |  | 0.125 |  | 0.158
LCLC-103H | 0.579 | 0.517 | 0.471 | 0.4 | 0.458 | 0.769 | 0.76 | 0.71 | 0.76 | 0.663 | 0.752 | 0.796 | 0.735 | 0.774 | 0.834 | 0.606 | 0.533 | 0.574 | 0.633 | 0.646
LK-2 | 0.316 | 0.355 | 0.325 | 0.255 | 0.376 | 0.991 | 0.826 | 0.879 | 0.916 | 0.69 | 0.401 | 0.479 | 0.419 | 0.387 | 0.447 | 0.648 | 0.619 | 0.515 | 0.551 | 0.602
LOU-NH91 | 0.55 | 0.554 | 0.526 | 0.547 | 0.511 | 0.988 | 0.921 | 0.924 | 0.916 | 0.847 | 0.802 | 0.752 | 0.727 | 0.771 | 0.789 | 0.556 | 0.515 | 0.516 | 0.482 | 0.532
LU99A | 0.401 | 0.507 | 0.546 | 0.509 | 0.708 | 0.245 | 0.228 | 0.176 | 0.143 | 0.122 | 0.333 | 0.324 | 0.537 | 0.353 | 0.325 | 0.319 | 0.39 | 0.256 | 0.313 | 0.324
LXF-289 | 0.237 | 0.214 | 0.202 | 0.286 | 0.26 | 1.3 | 1.05 | 1.24 | 1.37 | 0.903 | 1.02 | 1.1 | 1.1 | 1.09 | 1.08 | 0.735 | 0.783 | 0.765 | 0.883 | 0.802
NCI-H23 | 0.81 | 0.825 | 0.73 | 0.838 | 0.754 | 0.311 | 0.245 | 0.201 | 0.195 | 0.125 | 0.264 | 0.34 | 0.276 | 0.23 | 0.232 | 0.535 | 0.462 | 0.432 | 0.452 | 0.425
NCI-H322M | 0.244 | 0.25 | 0.243 | 0.245 | 0.255 | 0.783 | 0.842 | 0.712 | 0.653 | 0.458 | 0.598 | 0.503 | 0.603 | 0.507 | 0.548 | 0.544 | 0.445 | 0.527 | 0.484 | 0.509
